Test results: the supplement of paper PMC11451515

Tests used:
Conditions in all cases: 48 h
NOMO1 [1] = assay: AUC of viability dose-response curve (% viability x log10 dose units); higher = less sensitive
In short: (§1)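 In 1536-well plates, leukemia cells adapted to each medium (500 or 1000 cells/well) were exposed for 48 h at 37°C to library compounds in DMSO across 11 threefold doses, 47 μM down to 0.79 nM. Viability was read by CellTiter-Glo One luminescence and normalised per plate to DMSO and cell-free wells. A four-parameter log-logistic fit over log10 doses was integrated by trapezoidal rule. This yielded the area under the curve, with over-full-viability curves scaled and quality-control failures dropped.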

P12-Ichikawa [2] = assay: as above
In short: as §1

SEM cells [3] = assay: as above
In short: as §1

NOMO1 [4] = assay: cell viability relative to DMSO control; higher = less cytotoxic
In short: (§2)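 Viability is a per-plate percentage relative to DMSO wells, with cell-free wells as background. CellTiter-Glo One luminescence was read after 48 h at 37°C on 1536-well plates (5 μl) of NOMO1 or SEM (500 cells/well) or P12-Ichikawa (1000 cells/well) leukemia cells. The cells had been adapted for at least four passages in each medium and pin-dosed with library compounds in DMSO from 47 μM to 0.79 nM in 11 threefold steps.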

P12-Ichikawa [5] = assay: as above
In short: as §2

SEM cells [6] = assay: as above
In short: as §2

CC(C)n1nc(-c2cc3cc(O)ccc3[nH]2)c2c(N)ncnc21
AUC of viability dose-response curve
Conditions | NOMO1 [1] | P12-Ichikawa [2] | SEM cells [3]
HPLM + 10% dialyzed FBS | 350 | 360 | 306
RPMI 5 mM glucose + 10% FBS | 399 | 332 | 327
RPMI 5 mM glucose + 10% dialyzed FBS | 355 | 341 | 317

cell viability [%]
Conditions | NOMO1 [4] | P12-Ichikawa [5] | SEM cells [6]
HPLM + 10% dialyzed FBS, 0.000781 µM | 79 | 109 | 93.3
HPLM + 10% dialyzed FBS, 0.00234 µM | 124 | 107 | 104
HPLM + 10% dialyzed FBS, 0.00702 µM | 110 | 112 | 111
HPLM + 10% dialyzed FBS, 0.0211 µM | 107 | 106 | 94.3
HPLM + 10% dialyzed FBS, 0.0632 µM | 99.7 | 99.4 | 81
HPLM + 10% dialyzed FBS, 0.19 µM | 94.7 | 90 | 84.4
HPLM + 10% dialyzed FBS, 0.569 µM | 65.7 | 73 | 45.2
HPLM + 10% dialyzed FBS, 1.71 µM | 61.6 | 72.7 | 52.9
HPLM + 10% dialyzed FBS, 5.12 µM | 44.7 | 64.9 | 25.9
HPLM + 10% dialyzed FBS, 15.4 µM | 31.2 | 47.4 | 16.7
HPLM + 10% dialyzed FBS, 46.1 µM | 27 | 36.8 | 6.97
RPMI 5 mM glucose + 10% FBS, 0.000781 µM | 96.2 | 100 | 106
RPMI 5 mM glucose + 10% FBS, 0.00234 µM | 113 | 109 | 107
RPMI 5 mM glucose + 10% FBS, 0.00702 µM | 104 | 110 | 114
RPMI 5 mM glucose + 10% FBS, 0.0211 µM | 105 | 95.3 | 136
RPMI 5 mM glucose + 10% FBS, 0.0632 µM | 104 | 92.8 | 108
RPMI 5 mM glucose + 10% FBS, 0.19 µM | 96.6 | 79.5 | 85.4
RPMI 5 mM glucose + 10% FBS, 0.569 µM | 88.1 | 66.5 | 66.3
RPMI 5 mM glucose + 10% FBS, 1.71 µM | 90.2 | 56.9 | 66
RPMI 5 mM glucose + 10% FBS, 5.12 µM | 71.8 | 52.5 | 38
RPMI 5 mM glucose + 10% FBS, 15.4 µM | 44.1 | 35.4 | 23.6
RPMI 5 mM glucose + 10% FBS, 46.1 µM | 23 | 17.5 | 8.3
RPMI 5 mM glucose + 10% dialyzed FBS, 0.000781 µM | 111 | 105 | 90.8
RPMI 5 mM glucose + 10% dialyzed FBS, 0.00234 µM | 110 | 116 | 99.4
RPMI 5 mM glucose + 10% dialyzed FBS, 0.00702 µM | 100 | 111 | 92.4
RPMI 5 mM glucose + 10% dialyzed FBS, 0.0211 µM | 101 | 118 | 87.7
RPMI 5 mM glucose + 10% dialyzed FBS, 0.0632 µM | 101 | 108 | 94.8
RPMI 5 mM glucose + 10% dialyzed FBS, 0.19 µM | 90.9 | 86.4 | 87.6
RPMI 5 mM glucose + 10% dialyzed FBS, 0.569 µM | 76.7 | 73.6 | 48.7
RPMI 5 mM glucose + 10% dialyzed FBS, 1.71 µM | 78 | 66.6 | 52.4
RPMI 5 mM glucose + 10% dialyzed FBS, 5.12 µM | 54.2 | 48.6 | 35.4
RPMI 5 mM glucose + 10% dialyzed FBS, 15.4 µM | 34.1 | 30.8 | 20.9
RPMI 5 mM glucose + 10% dialyzed FBS, 46.1 µM | 14.1 | 20.5 | 6.33

C[C@H](NC(=O)/C(C#N)=C/c1cccc(Br)n1)c1ccccc1
AUC of viability dose-response curve
Conditions | NOMO1 [1] | P12-Ichikawa [2] | SEM cells [3]
HPLM + 10% dialyzed FBS | 348 | 336 | 336
RPMI 5 mM glucose + 10% FBS | 361 | 353 | 316
RPMI 5 mM glucose + 10% dialyzed FBS | 371 | 351 | 336

cell viability [%]
Conditions | NOMO1 [4] | P12-Ichikawa [5] | SEM cells [6]
HPLM + 10% dialyzed FBS, 0.000781 µM | – | 107 | 89.8
HPLM + 10% dialyzed FBS, 0.00234 µM | – | 113 | 102
HPLM + 10% dialyzed FBS, 0.00702 µM | – | 112 | 98.7
HPLM + 10% dialyzed FBS, 0.0211 µM | – | 121 | 109
HPLM + 10% dialyzed FBS, 0.0632 µM | – | 119 | 118
HPLM + 10% dialyzed FBS, 0.19 µM | – | 122 | 112
HPLM + 10% dialyzed FBS, 0.569 µM | – | 120 | 103
HPLM + 10% dialyzed FBS, 1.71 µM | – | 45.1 | 40.7
HPLM + 10% dialyzed FBS, 5.12 µM | – | 7.82 | 8.01
HPLM + 10% dialyzed FBS, 15.4 µM | – | 7.53 | 6.81
HPLM + 10% dialyzed FBS, 46.1 µM | – | 7.45 | 6.6
RPMI 5 mM glucose + 10% FBS, 0.000781 µM | 104 | 112 | 91.1
RPMI 5 mM glucose + 10% FBS, 0.00234 µM | 104 | 119 | 98.2
RPMI 5 mM glucose + 10% FBS, 0.00702 µM | 123 | 112 | 102
RPMI 5 mM glucose + 10% FBS, 0.0211 µM | 112 | 111 | 107
RPMI 5 mM glucose + 10% FBS, 0.0632 µM | 119 | 118 | 91.9
RPMI 5 mM glucose + 10% FBS, 0.19 µM | 98.1 | 125 | 97.6
RPMI 5 mM glucose + 10% FBS, 0.569 µM | 103 | 131 | 93.2
RPMI 5 mM glucose + 10% FBS, 1.71 µM | 87.7 | 88.3 | 13
RPMI 5 mM glucose + 10% FBS, 5.12 µM | 19 | 9.63 | 7.6
RPMI 5 mM glucose + 10% FBS, 15.4 µM | 8.24 | 6.78 | 6.42
RPMI 5 mM glucose + 10% FBS, 46.1 µM | 7.32 | 6.3 | 6.63
RPMI 5 mM glucose + 10% dialyzed FBS, 0.000781 µM | 99.5 | 111 | 74.5
RPMI 5 mM glucose + 10% dialyzed FBS, 0.00234 µM | 115 | 109 | 116
RPMI 5 mM glucose + 10% dialyzed FBS, 0.00702 µM | 109 | 113 | 102
RPMI 5 mM glucose + 10% dialyzed FBS, 0.0211 µM | 114 | 111 | 122
RPMI 5 mM glucose + 10% dialyzed FBS, 0.0632 µM | 107 | 109 | 104
RPMI 5 mM glucose + 10% dialyzed FBS, 0.19 µM | 129 | 126 | 116
RPMI 5 mM glucose + 10% dialyzed FBS, 0.569 µM | 115 | 121 | 108
RPMI 5 mM glucose + 10% dialyzed FBS, 1.71 µM | 93.8 | 79.2 | 38.2
RPMI 5 mM glucose + 10% dialyzed FBS, 5.12 µM | 38.8 | 9.86 | 8.38
RPMI 5 mM glucose + 10% dialyzed FBS, 15.4 µM | 8.68 | 7.21 | 7.55
RPMI 5 mM glucose + 10% dialyzed FBS, 46.1 µM | 6.9 | 6.61 | 7.44
